Source: paper PMC3558798 (British Journal of Clinical Pharmacology, 2012)
Where two headings read alike, the source gives them in different places. Values belong to the compound of their own block, whether it stands above or below them.

Tests used:
clinical [1] = details: human, plasma; for half-life: oral; for AUC(0-inf) / AUC(0-t) / Cmax / Tmax: po; for Tmax: Median tmax, range over doses
clinical [2] = details: human, plasma, oral, 10 mg; for AUC(0-t): AUC(0,t) Adjusted geometric mean; for AUC(0-inf): AUC(0,∞) Adjusted geometric mean; for Cmax: Cmax Adjusted geometric mean
[3] = test system: international normalized ratio (INR); experiment: Food effect study: INR; type: in vivo, human; details: for INR Mean (SD) change from baseline: 3 h after 10 mg oral tablet
thromboembolic events = details: patients who had received total knee or hip replacement surgery; cited from earlier work
[4] = Food effect study: safety assessments; type: in vivo, human
[5] = test system: international normalized ratio (INR); experiment: Single ascending-dose study: INR; type: in vivo, human; details: for mean maximum INR: 0–24 h post-dose
[6] = test system: activated partial thromboplastin time (aPTT); experiment: Food effect study: aPTT; type: in vivo, human; details: 3 h after 10 mg oral tablet
[7] = Single ascending-dose study: template bleeding time; type: in vivo, human; details: between pre-dose and 3.5 h post-dose
[8] = test system: modified prothrombin time (mPT); experiment: Single ascending-dose study: modified prothrombin time; type: in vivo, human
[9] = oral; cited from earlier work
venous thrombosis = details: at doses that preserved haemostasis; cited from earlier work
[10] = 10 mg, high fat, high calorie meal vs fasted
[11] = test system: activated partial thromboplastin time (aPTT); experiment: Single ascending-dose study: aPTT; type: in vivo, human
[12] = Single ascending-dose study: safety assessments; type: in vivo, human
prothrombin time (PT) = experiment: Food effect study: PT; type: in vivo, human; details: 3 h after 10 mg oral tablet
[13] = high calorie, high fat breakfast; cited from earlier work
[14] = cited from earlier work
[15] = single 10 mg dose following standard high calorie, high fat meal
[16] = single 20 mg dose following a similar meal

- half-life (clinical [1]; 10 mg, half-life, single doses, overall conclusion): ~12 h
- half-life (clinical [1]; t1/2, range, doses that provided sufficient data to characterize the terminal elimination phase (i.e. 5–50 mg)): 7 to 27 h
- AUC(0-inf) (clinical [1]; 0.5 mg): 61.9 ng·h/mL
- AUC(0-t) (clinical [1]; 0.5 mg): 52.7 ng·h/mL
- Cmax (clinical [1]; 0.5 mg): 9.1 ng/mL
- AUC(0-inf) (clinical [1]; 1 mg): 174 ng·h/mL
- AUC(0-t) (clinical [1]; 1 mg): 163 ng·h/mL
- Cmax (clinical [1]; 1 mg): 23.5 ng/mL
- AUC(0-inf) (clinical [1]; 2.5 mg): 438 ng·h/mL
- AUC(0-t) (clinical [1]; 2.5 mg): 421 ng·h/mL
- Cmax (clinical [1]; 2.5 mg): 52.5 ng/mL
- AUC(0-inf) (clinical [1]; 5 mg): 1020 ng·h/mL
- AUC(0-t) (clinical [1]; 5 mg): 977 ng·h/mL
- Cmax (clinical [1]; 5 mg): 105 ng/mL
- AUC(0-inf) (clinical [1]; 10 mg): 1300 ng·h/mL
- AUC(0-t) (clinical [1]; 10 mg): 1270 ng·h/mL
- Cmax (clinical [1]; 10 mg): 176 ng/mL
- AUC(0-inf) (clinical [1]; 25 mg): 4010 ng·h/mL
- AUC(0-t) (clinical [1]; 25 mg): 3870 ng·h/mL
- Cmax (clinical [1]; 25 mg): 365 ng/mL
- AUC(0-inf) (clinical [1]; 50 mg): 7560 ng·h/mL
- AUC(0-t) (clinical [1]; 50 mg): 7100 ng·h/mL
- Cmax (clinical [1]; 50 mg): 685 ng/mL
- Tmax (clinical [1]; oral solution (0.5–2.5 mg)): 1.5 to 1.8 h
- Tmax (clinical [1]; oral tablet (5–50 mg)): 2.5 to 3.3 h
- AUC(0-t) (clinical [2]; 10 mg fasted): 1730 ng·h/mL
- AUC(0-t) (clinical [2]; 10 mg fed): 1810 ng·h/mL
- AUC(0-inf) (clinical [2]; 10 mg fasted): 1790 ng·h/mL
- AUC(0-inf) (clinical [2]; 10 mg fed): 1870 ng·h/mL
- Cmax (clinical [2]; 10 mg fasted): 151 ng/mL
- Cmax (clinical [2]; 10 mg fed): 165 ng/mL
- half-life (clinical [2]; half-life, food effect study): ~11.5 h
- Inter-subject variability, %CV for Cmax and AUC (across all doses, regardless of formulation): approximately 30%
- change in template bleeding time [7]: ≤ 1 min
- increase in median tmax with food [10]: 1 h
Structure (SMILES): COc1ccc(-n2nc(C(N)=O)c3c2C(=O)N(c2ccc(N4CCCCC4=O)cc2)CC3)cc1 [apixaban, 1-(4-methoxyphenyl)-7-oxo-6-(4-(2-oxopiperidin-1-yl)phenyl)-4,5,6,7-tetrahydro-1H -pyrazolo[3,4-c]pyridine-3-carboxamide]
- individual INR (highest) ([3]; 10 mg, fed and fasted): ≤ 2.0
- time for INR, aPTT and PT to return to baseline ([3]; 10 mg, fed and fasted): ≤ 24 h
- INR Mean (SD) change from baseline ([3]; fasted, n = 23): 0.23 (0.13)
- INR Mean (SD) change from baseline ([3]; fed, n = 22): 0.20 (0.12)
- dose proportionality of Cmax, AUC(0,∞) and AUC(0,t) (0.5–50 mg): increased approximately proportionally to dose
- prevention of thromboembolic events vs enoxaparin 40 mg daily (thromboembolic events): superior to enoxaparin
- elevated alanine transaminase level ([4]; one subject, discontinued, 10 mg): 3 × upper limit of normal [ULN]
- elevations in aspartate aminotransferase and gamma-glutamyl transferase levels ([4]; same one subject, 10 mg): < 2 × ULN
- bleeding-related AEs ([4]; single 10 mg doses): no bleeding-related AEs
- serious AEs or major bleeding-related events ([4]; single 10 mg doses, fed and fasted): no serious AEs or major bleeding-related events
- mean % change from baseline in maximum INR ([5]; 10 mg dose): 19.5%
- mean % change from baseline in maximum INR ([5]; 25 mg dose): 44.1%
- mean maximum INR ([5]; 25 mg dose): 1.45
- mean % change from baseline in maximum INR ([5]; 50 mg dose): 55.8%
- mean maximum INR ([5]; 50 mg dose): 1.71
- peak INR increase from baseline ([5]; after a 50 mg dose): 1.6 fold
- time until changes in pharmacodynamic parameters were evident ([5]; following a single dose, clotting assay parameters (INR, aPTT and mPT)): less than 1 h
- aPTT Mean (SD) ([6]; fasted, n = 23): 32.96 (3.59)
- aPTT Mean (SD) change from baseline ([6]; fasted, n = 23): 3.05 (2.59)
- aPTT Mean (SD) ([6]; fed, n = 22): 31.55 (3.02)
- aPTT Mean (SD) change from baseline ([6]; fed, n = 22): 2.90 (2.21)
- mean % change from baseline in maximum mPT ([8]; 2.5 mg dose): 35.0%
- mean % change from baseline in maximum mPT ([8]; 5 mg dose): 42.9%
- mean % change from baseline in maximum mPT ([8]; 10 mg dose): 87.1%
- mean % change from baseline in maximum mPT ([8]; 25 mg dose): 135.3%
- mean % change from baseline in maximum mPT ([8]; 50 mg dose): 187.1%
- peak mPT increase from baseline ([8]; after a 50 mg dose): 2.9 fold
- bioavailability [9]: ~50%
- antithrombotic effects (venous thrombosis): potent antithrombotic effects
- mean % change from baseline in maximum aPTT ([11]; 25 mg dose): 25.7%
- mean maximum aPTT ([11]; 25 mg dose, baseline 30.4 s): 38.2 s
- mean % change from baseline in maximum aPTT ([11]; 50 mg dose): 23.1%
- mean maximum aPTT ([11]; 50 mg dose, baseline 28.6 s): 35.1 s
- peak aPTT increase from baseline ([11]; after a 50 mg dose): 1.2 fold
- subjects with bleeding-related AEs ([12]; haematochezia at 25 mg (one), haematuria at 50 mg (two), all mild): Three subjects had bleeding-related AEs
- serious AEs or major bleeding-related events ([12]; single oral doses 0.5–50 mg): no serious AEs or major bleeding-related events
- dose-limiting AEs ([12]; single oral doses of up to 50 mg): No dose-limiting AEs were observed
- PT Mean (SD) (prothrombin time (PT); fasted, n = 23): 14.99 (1.24)
- PT Mean (SD) change from baseline (prothrombin time (PT); fasted, n = 23): 1.39 (0.89)
- PT Mean (SD) (prothrombin time (PT); fed, n = 22): 14.66 (0.97)
- PT Mean (SD) change from baseline (prothrombin time (PT); fed, n = 22): 1.30 (0.85)

Structure (SMILES): [H]/N=C(/N)c1ccc(NCc2nc3cc(C(=O)N(CCC(=O)O)c4ccccn4)ccc3n2C)cc1 [dabigatran]
- effect of food on extent of absorption [13]: did not affect the extent of absorption

Structure (SMILES): O=C(NC[C@H]1CN(c2ccc(N3CCOCC3=O)cc2)C(=O)O1)c1ccc(Cl)s1 [rivaroxaban]
- increase in AUC(0,∞) with food [14, 15]: 28%
- increase in Cmax with food [14, 15]: 41%
- increase in AUC(0,∞) with food [14, 16]: 23%
- increase in Cmax with food [14, 16]: 74%
